Columns and labels:
[1] = system: induced pluripotent stem cell derived cardiomyocytes (iPSC); experiment: MTT viability assay, IC-50; assay type: cell-based, human
MDA-MB-231 = settings: read-out: IC-50, MDA-MB-231; unit printed only in neighbouring columns; ref 39b; cited from earlier work
MCF-7 = settings: read-out: IC-50, MCF-7; unit printed only in neighbouring columns; ref 39b; cited from earlier work
BT-549 = settings: read-out: IC-50, BT-549; unit printed only in neighbouring columns; ref 39b; cited from earlier work
MDA-MB-231R cells = experiment: Confocal uptake of NBD-Def1; assay type: cell-based; settings: confocal microscopy, 20, 6.6 or 2.2 ug/ml, 15 min, 37C, N=4
SKOV3 cells = experiment: Confocal uptake of NBD-Def1; assay type: cell-based; settings: confocal microscopy, 20, 6.6 or 2.2 ug/ml, 15 min, 37C, N=4
[2] = system: MCF-10A normal epithelial breast cells; experiment: Confocal uptake of NBD-Def1; assay type: cell-based; settings: confocal microscopy, 5 times higher dose (200 mg/mL)
fibroblasts cells = experiment: Confocal uptake of NBD-Def1; assay type: cell-based; settings: confocal microscopy, 5 times higher dose (200 mg/mL)
MCF-10A Epithelial Cells = experiment: MTT viability assay, IC-50; assay type: cell-based; settings: normal epithelial breast cells, 24 h
MCF-7R cells = experiment: Ceramide release by LC-MS/MS; assay type: cell-based; settings: 20 μM, 6 hrs, Doxorubicin resistant MCF-7R cells, n=4, preliminary
[3] = system: Bone Marrow Cells MSC-001F; experiment: Viability assay, IC-50; assay type: cell-based; settings: normal cells
thioredoxin (Trx) = molecular target: T1, thioredoxin (Trx) (Homo sapiens, UniProt P10599); experiment: Thioredoxin redox Western blot; assay type: cell-based; settings: 20 μM Def1, Doxorubicin resistant MDA-MB-231-R cells, N=4
T1 sequence (P10599 1-105): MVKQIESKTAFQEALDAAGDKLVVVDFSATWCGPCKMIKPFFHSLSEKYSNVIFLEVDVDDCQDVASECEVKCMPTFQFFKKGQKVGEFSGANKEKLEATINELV

ASK1 = experiment: Immunoblot of ASK1 Thr845 phosphorylation; assay type: cell-based; settings: 50 μM, 60 minutes, MDA-MB-231 cells, vs solvent control and NAC control, N=4
[4] = 15N NMR chemical shift mapping of Def1 binding to GlcCer; settings: 15N-labeled Def1, chemical shift perturbation, T1, 15N-1H NOE; N=3

COc1cccc2c1C(=O)c1c(O)c3c(c(O)c1C2=O)C[C@@](O)(C(=O)CO)C[C@@H]3O[C@H]1C[C@H](N)[C@H](O)[C@H](C)O1 [Doxorubicin, reference compound]
more potency for cardiomyocytes and bone marrow cells ([1]; in contrast to Def1): 10-15 times

hBD-1: Human Beta Defensin (hBD-1) with three S-S bonds (DHYNCVSSGGQCLYSACPIFTKIQGTCYRGKAKCCK; Beta-defensin 1; UniProt P60022 33-68, looked up)
IC50 (MDA-MB-231): 18 µM | IC50 (MCF-7): 21 µM | IC50 (BT-549): 17 µM

6-((N-(7-nitrobenz-2-oxa-1, 3-diazol-4-yl) amino) hexanoyl (NBD)-Def1 [NBD-Def1]
uptake, MDA-MB-231R (MDA-MB-231R cells): concentration dependent uptake | uptake, SKOV3 (SKOV3 cells): concentration dependent uptake | uptake, normal epithelial breast cells MCF-10A [2]: did not pick up | uptake, fibroblasts (fibroblasts cells): did not pick up

Medicago sativa Defensin 1 [Def1]
IC-50, MCF-10A Epithelial Cells (MCF-10A Epithelial Cells): > 200 µM | IC-50, iPSC (induced pluripotent stem cell derived cardiomyocytes) ([1]; human iPSC cardiomyocytes, MTT, 24 h): > 180 µM | accumulation of ceramide (MCF-7R cells): enhanced accumulation of ceramide | IC-50, Bone Marrow Cells MSC-001F [3]: > 150 µM | oxidation of Trx (new band at 28 KDa) (thioredoxin (Trx)): oxidation of Trx | phosphorylation of Thr845 residue of ASK1 (ASK1): significant increase | binding to GlcCer [4]: binds to GlcCer at two regions
